Reference: the NIST ThermoML archive (doi:10.1016/j.jct.2013.10.005)
Numbers after ± are expanded uncertainties.

Conditions: 298 K; 101.33 kPa; Crystal; X-ray diffraction

O.O.O.O.O=C([O-])[C@H](O)[C@@H](O)[C@H](O)[C@H](O)CO.O=C([O-])[C@H](O)[C@@H](O)[C@H](O)[C@H](O)CO.[Ba+2] [barium D-gluconate tetrahydrate]
mass density: 1969 ± 10 kg/m3
